Test results from patent publication US20060069132A1, “Azolecarboxamide herbicides” (priority 2004, published 2006).

What was measured:
rice = assay: Test B pre-/postemergence herbicide test; type: in vivo, Oryza sativa; details: preemergence
In short: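 Response was scored visually 13 to 15 days after treatment against untreated greenhouse controls, 0 meaning no effect and 100 complete control. Formulations (solvent mixture plus surfactant) went onto soil after planting, onto foliage of 1- to 4-leaf plants, and onto 2-leaf plants in a flooded paddy set including rice and barnyardgrass.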

large crabgrass [1] = assay: Test C pre-/postemergence herbicide test; type: in vivo, Digitaria sanguinalis
In short: (§1)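 Pre- and postemergence application, solvent/surfactant formulation; post at 1- to 4-leaf stage (2–18 cm). Greenhouse 12–14 d. Visual rating vs controls, 0 = no effect, 100 = complete control.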

redroot pigweed = assay: Test A pre-/postemergence herbicide test; type: in vivo, Amaranthus retroflexus
In short: (§2)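 Visual injury rating on a 0–100 scale (0 no effect, 100 complete control) versus untreated controls, about ten days after treatment in greenhouse. Pre: directed soil spray onto seeded sandy loam. Post: spray to runoff on plants 2–10 cm tall at one- to two-leaf stage.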

large crabgrass [2] = assay: Test A pre-/postemergence herbicide test; type: in vivo, Digitaria sanguinalis
In short: as §2

[3] = tested on: common (oilseed) sunflower; assay: Test C pre-/postemergence herbicide test; type: in vivo, Helianthus annuus
In short: as §1

velvetleaf = assay: Test C pre-/postemergence herbicide test; type: in vivo, Abutilon theophrasti
In short: as §1

goosegrass = assay: Test C pre-/postemergence herbicide test; type: in vivo, Eleusine indica
In short: as §1

pigweed = assay: Test C pre-/postemergence herbicide test; type: in vivo, Amaranthus retroflexus
In short: as §1

[4] = 125 g ai/ha, scale 0 (no effect) to 100 (complete control), visual, 12 to 14 days, preemergence
[5] = Postemergence, 500 g ai/ha, scale 0 to 100
[6] = Postemergence, 250 g ai/ha, scale 0 to 100, 0 no effect, 100 complete control
[7] = Preemergence, 500 g ai/ha, scale 0 to 100, 0 no effect, 100 complete control
[8] = postemergence, 125 g ai/ha, scale 0 to 100
[9] = postemergence, 62 g ai/ha, scale 0 to 100
[10] = Postemergence, 500 g ai/ha, 0 to 100 scale, 0 no effect, 100 complete control
[11] = Postemergence, 2000 g ai/ha, 0 to 100 scale, 0 no effect, 100 complete control
[12] = Preemergence, 2000 g ai/ha, visual rating, 0 to 100 scale (0 no effect, 100 complete control)
[13] = preemergence, 500 g ai/ha, visual injury, 0 to 100 scale (0 no effect, 100 complete control)
[14] = 62 g ai/ha, preemergence, scale 0 to 100
[15] = 250 g ai/ha, scale 0-100, preemergence
[16] = 500 g ai/ha, scale 0 to 100 (0 no effect, 100 complete control), visual, 12 to 14 days, preemergence

C#CCNC(=O)c1cccc(NC(=O)c2cc(C(C)(C)C)nn2CC)n1 [Compound 147]
Plant response rating, Rice (rice; 500 g ai/ha, visual rating 0-100, 0 no effect, 100 complete control): 10 | Plant response rating, Rice (rice; 125 g ai/ha, 0 to 100 scale, 0 is no effect, 100 is complete control): 0 | Plant response rating (0 = no effect, 100 = complete control), Crabgrass, Large (large crabgrass [1]; 62 g ai/ha, preemergence): 0 | Plant response rating, Crabgrass, Large (large crabgrass [1]; [4]): 50 | Plant response rating, Crabgrass, Large (large crabgrass [1]; 250 g ai/ha, scale 0 to 100 (0 no effect, 100 complete control), visual, 12 to 14 days, preemergence): 90 | Crabgrass, Large plant response rating (large crabgrass [1]; [5]): 60 | Plant response rating, Crabgrass, Large (large crabgrass [1]; [6]): 10 | Crabgrass, Large plant response rating (large crabgrass [1]; [7]): 100 | Plant response rating, Crabgrass, Large (large crabgrass [1]; [8]): 0 | Plant response rating, Crabgrass, Large (large crabgrass [1]; [9]): 0 | Pigweed plant response rating (redroot pigweed; [10]): 90 | Plant response rating, Pigweed (redroot pigweed; [11]): 100 | Pigweed plant response rating (redroot pigweed; [12]): 100 | Pigweed plant response rating (redroot pigweed; [13]): 85 | Crabgrass, Large plant response rating (large crabgrass [2]; [10]): 40 | Plant response rating, Crabgrass, Large (large crabgrass [2]; [11]): 90 | Crabgrass, Large plant response rating (large crabgrass [2]; Preemergence, 500 g ai/ha, visual rating, 0 to 100 scale (0 no effect, 100 complete control)): 85 | Crabgrass, Large plant response rating (large crabgrass [2]; [12]): 90 | Plant response rating (0 = no effect, 100 = complete control), Sunflower ([3]; 62 g ai/ha, preemergence): 0 | Plant response rating, Sunflower [3, 4]: 0 | Sunflower plant response rating [3, 7]: 0 | Plant response rating, Velvetleaf (velvetleaf; [4]): 20 | Velvetleaf plant response rating (velvetleaf; [5]): 40 | Velvetleaf plant response rating (velvetleaf; [7]): 90 | Plant response rating, Velvetleaf (velvetleaf; [8]): 30 | Plant response rating, Velvetleaf (velvetleaf; [9]): 0 | Plant response rating (0 = no effect, 100 = complete control), Goosegrass (goosegrass; 62 g ai/ha, preemergence): 0 | Plant response rating, Goosegrass (goosegrass; [4]): 20 | Goosegrass plant response rating (goosegrass; [5]): 5 | Plant response rating, Goosegrass (goosegrass; [6]): 5 | Goosegrass plant response rating (goosegrass; [7]): 80 | Plant response rating, Goosegrass (goosegrass; [8]): 0 | Plant response rating, Goosegrass (goosegrass; [9]): 0 | Plant response rating (0 = no effect, 100 = complete control), Pigweed (pigweed; 62 g ai/ha, preemergence): 20 | Plant response rating, Pigweed (pigweed; [4]): 90 | Pigweed plant response rating (pigweed; [5]): 100 | Plant response rating, Pigweed (pigweed; [6]): 100 | Pigweed plant response rating (pigweed; [7]): 100 | Plant response rating, Pigweed (pigweed; [8]): 90 | Plant response rating, Pigweed (pigweed; [9]): 90

CCN(CC)C(=O)c1cccc(NC(=O)c2cc(C(C)(C)C)nn2C)n1 [Compound 314]
Plant response rating (0 to 100 scale), Rice (rice; 125 g ai/ha, 0 is no effect, 100 is complete control): 0 | Plant response rating, Rice (rice; 500 g ai/ha, visual rating, 0 = no effect, 100 = complete control): 10 | Plant response rating, Crabgrass, Large (large crabgrass [1]; [14]): 0 | Plant response rating, Crabgrass, Large (large crabgrass [1]; [4]): 0 | Plant response rating, Crabgrass, Large (large crabgrass [1]; [15]): 40 | Plant response rating, Crabgrass, Large (large crabgrass [1]; [16]): 60 | Pigweed plant response rating (redroot pigweed; [10]): 80 | Plant response rating, Pigweed (redroot pigweed; [11]): 100 | Pigweed plant response rating (redroot pigweed; [12]): 90 | Pigweed plant response rating (redroot pigweed; [13]): 80 | Crabgrass, Large plant response rating (large crabgrass [2]; [10]): 20 | Plant response rating, Crabgrass, Large (large crabgrass [2]; [11]): 60 | Crabgrass, Large plant response rating (large crabgrass [2]; [12]): 90 | Crabgrass, Large plant response rating (large crabgrass [2]; [13]): 55 | Plant response rating, Sunflower [3, 14]: 0 | Plant response rating, Sunflower [3, 15]: 20 | Plant response rating, Sunflower [3, 16]: 45 | Plant response rating, Velvetleaf (velvetleaf; [14]): 0 | Plant response rating, Velvetleaf (velvetleaf; [15]): 80 | Plant response rating, Velvetleaf (velvetleaf; [16]): 85 | Plant response rating, Goosegrass (goosegrass; [14]): 0 | Plant response rating, Goosegrass (goosegrass; [4]): 40 | Plant response rating, Goosegrass (goosegrass; [15]): 65 | Plant response rating, Goosegrass (goosegrass; [16]): 85 | Plant response rating, Pigweed (pigweed; [14]): 30 | Plant response rating, Pigweed (pigweed; [4]): 60 | Plant response rating, Pigweed (pigweed; [15]): 90 | Plant response rating, Pigweed (pigweed; [16]): 90
